biological target: T1, JAK2 (JH1domain-catalytic, Y1007F,Y1008F) kinase (Homo sapiens, UniProt O60674, Y1007F/Y1008F); experiment: JAK2 JH1 Domain Binding Assay; conditions: qPCR readout
T1 construct: JAK2 (JH1domain-catalytic, Y1007F,Y1008F) kinase was expressed as N-terminal fusion; made in house; host or cells: transiently transfected HEK293 cells
T1 sequence (O60674 849-1124 Y1007F/Y1008F limits assumed): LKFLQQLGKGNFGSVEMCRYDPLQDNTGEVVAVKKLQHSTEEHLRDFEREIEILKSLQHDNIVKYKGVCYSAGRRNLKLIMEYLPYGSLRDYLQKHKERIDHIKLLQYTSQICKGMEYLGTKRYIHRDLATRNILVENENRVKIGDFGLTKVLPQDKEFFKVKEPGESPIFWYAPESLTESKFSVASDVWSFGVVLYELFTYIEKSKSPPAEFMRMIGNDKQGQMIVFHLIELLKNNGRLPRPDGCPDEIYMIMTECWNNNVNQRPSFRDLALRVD

`Cn1cc(C2CC2)cc(Nc2nc3ncc(Oc4cnn5ccnc(OCCN6CCOCC6)c45)c(Cl)c3n2C)c1=O` [Example I-136, 3-((7-chloro-1-methyl-6-((4-(2-morpholinoethoxy)pyrazolo[1,5-a]pyrazin-3-yl)oxy)-1H-imidazo[4,5-b]pyridin-2-yl)amino)-5-cyclopropyl-1-methylpyridin-2(1H)-one] and `Cn1c(Nc2cc(C(F)(F)F)cn(CCO)c2=O)nc2ncc(Oc3cnn4ccnc(N5CCOCC5)c34)c(Cl)c21` [Example I-140, 3-((7-chloro-1-methyl-6-((4-morpholinopyrazolo[1,5-a]pyrazin-3-yl)oxy)-1H-imidazo[4,5-b]pyridin-2-yl)amino)-1-(2-hydroxyethyl)-5-(trifluoromethyl)pyridin-2(1H)-one] fall in the same range of Kd: 10 to 50 nM for the first, 10 to 50 nM for the second.

First: Cn1c(Nc2cc(C(C)(C)C)n([C@H]3CCOC3)n2)nc2ncc(Oc3cnn4ccncc34)c(C#N)c21 [Example I-137, (S)-2-((5-(tert-butyl)-1-(tetrahydrofuran-3-yl)-1H-pyrazol-3-yl)amino)-1-methyl-6-(pyrazolo[1,5-a]pyrazin-3-yloxy)-1H-imidazo[4,5-b]pyridine-7-carbonitrile]
Second: Cn1c(Nc2cc(C(C)(C)C)n([C@H]3C[C@H](O)C3)n2)nc2ncc(Oc3cnn4ccncc34)c(C#N)c21 [Example I-158, trans-2-((5-(tert-butyl)-1-(3-hydroxycyclobutyl)-1H-pyrazol-3-yl)amino)-1-methyl-6-(pyrazolo[1,5-a]pyrazin-3-yloxy)-1H-imidazo[4,5-b]pyridine-7-carbonitrile]
The Kd of the first is higher: 10 to 50 nM for the first, less than 10 nM for the second. The second binds more tightly here.

First: Cn1c(Nc2cc(C(F)(F)F)cn(CCCN3CCCC(F)(F)C3)c2=O)nc2ncc(Oc3cnn4ccncc34)c(Cl)c21 [Example I-138, 3-((7-chloro-1-methyl-6-(pyrazolo[1,5-a]pyrazin-3-yloxy)-1H-imidazo[4,5-b]pyridin-2-yl)amino)-1-(3-(3,3-difluoropiperidin-1-yl)propyl)-5-(trifluoromethyl)pyridin-2(1H)-one]
Second: Cn1cc(C(F)(F)C(F)(F)F)cc(Nc2nc3ncc(Oc4cnn5ccncc45)c(Cl)c3n2C)c1=O [Example I-144, 3-((7-chloro-1-methyl-6-(pyrazolo[1,5-a]pyrazin-3-yloxy)-1H-imidazo[4,5-b]pyridin-2-yl)amino)-1-methyl-5-(perfluoroethyl)pyridin-2(1H)-one]
The Kd of the first is higher: 10 to 50 nM for the first, less than 10 nM for the second. The second binds more tightly here.

`Cn1c(Nc2cc(C3CC3)cn(CCO)c2=O)nc2ncc(Oc3cnn4cccc(F)c34)c(Cl)c21` [Example I-141, 3-((7-chloro-6-((4-fluoropyrazolo[1,5-a]pyridin-3-yl)oxy)-1-methyl-1H-imidazo[4,5-b]pyridin-2-yl)amino)-5-cyclopropyl-1-(2-hydroxyethyl)pyridin-2(1H)-one] and `COCCOc1ccc2c(Oc3cnc4nc(Nc5cc(C6CC6)cn(CCO)c5=O)n(C)c4c3Cl)cnn2c1` [Example I-155, 3-((7-chloro-6-((6-(2-methoxyethoxy)pyrazolo[1,5-a]pyridin-3-yl)oxy)-1-methyl-1H-imidazo[4,5-b]pyridin-2-yl)amino)-5-cyclopropyl-1-(2-hydroxyethyl)pyridin-2(1H)-one] cannot be ordered by Kd: less than 10 nM for the first, less than 10 nM for the second.

`Cn1c(Nc2cc(C3CC3)nn([C@@H]3CCOC3)c2=O)nc2ncc(Oc3cnn4ccccc34)c(Cl)c21` [Example I-142, (R)-4-((7-chloro-1-methyl-6-(pyrazolo[1,5-a]pyridin-3-yloxy)-1H-imidazo[4,5-b]pyridin-2-yl)amino)-6-cyclopropyl-2-(tetrahydrofuran-3-yl)pyridazin-3(2H)-one] and `Cn1c(Nc2cc(C3CC3)nn([C@H]3CCOC3)c2=O)nc2ncc(Oc3cnn4ccccc34)c(Cl)c21` [Example I-143, (S)-4-((7-chloro-1-methyl-6-(pyrazolo[1,5-a]pyridin-3-yloxy)-1H-imidazo[4,5-b]pyridin-2-yl)amino)-6-cyclopropyl-2-(tetrahydrofuran-3-yl)pyridazin-3(2H)-one] cannot be ordered by Kd: less than 10 nM for the first, less than 10 nM for the second.

Compared with `Cn1c(Nc2cc(C(=O)NCCN3CCOCC3)cc(C(F)(F)F)c2)nc2ncc(Oc3cnn4ccccc34)c(Cl)c21` [Example I-145, 3-((7-chloro-1-methyl-6-(pyrazolo[1,5-a]pyridin-3-yloxy)-1H-imidazo[4,5-b]pyridin-2-yl)amino)-N-(2-morpholinoethyl)-5-(trifluoromethyl)benzamide], `Cn1c(Nc2ccc(CN3CCOCC3)c(C(F)(F)F)c2)nc2ncc(Oc3cnn4ccncc34)c(Cl)c21` [Example I-149, 7-chloro-1-methyl-N-(4-(morpholinomethyl)-3-(trifluoromethyl)phenyl)-6-(pyrazolo[1,5-a]pyrazin-3-yloxy)-1H-imidazo[4,5-b]pyridin-2-amine] is lower in Kd: 10 to 50 nM for the first, less than 10 nM for the second. The second binds more tightly here.

`CCN1CCN(Cc2ccc(Nc3nc4ncc(Oc5cnn6ccncc56)c(Cl)c4n3C)cc2C(F)(F)F)CC1` [Example I-146, 7-chloro-N-(4-((4-ethylpiperazin-1-yl)methyl)-3-(trifluoromethyl)phenyl)-1-methyl-6-(pyrazolo[1,5-a]pyrazin-3-yloxy)-1H-imidazo[4,5-b]pyridin-2-amine] and `CN1C(=O)c2cc(Nc3nc4ncc(Oc5cnn6ccncc56)c(Cl)c4n3C)cc(C(F)(F)F)c2C1(C)C` [Example I-154, 6-((7-chloro-1-methyl-6-(pyrazolo[1,5-a]pyrazin-3-yloxy)-1H-imidazo[4,5-b]pyridin-2-yl)amino)-2,3,3-trimethyl-4-(trifluoromethyl)isoindolin-1-one] cannot be ordered by Kd: less than 10 nM for the first, less than 10 nM for the second.

`Cn1c(Nc2cc(C3CC3)cn([C@H]3C[C@@H](O)C3)c2=O)nc2ncc(Oc3cnn4cc(F)ccc34)c(Cl)c21` [Example I-151, cis-3-((7-chloro-6-((6-fluoropyrazolo[1,5-a]pyridin-3-yl)oxy)-1-methyl-1H-imidazo[4,5-b]pyridin-2-yl)amino)-5-cyclopropyl-1-(3-hydroxycyclobutyl)pyridin-2(1H)-one] and `Cn1c(Nc2cc(C3CC3)cn([C@H]3C[C@H](O)C3)c2=O)nc2ncc(Oc3cnn4cc(F)ccc34)c(Cl)c21` [Example I-152, trans-3-((7-chloro-6-((6-fluoropyrazolo[1,5-a]pyridin-3-yl)oxy)-1-methyl-1H-imidazo[4,5-b]pyridin-2-yl)amino)-5-cyclopropyl-1-(3-hydroxycyclobutyl)pyridin-2(1H)-one] cannot be ordered by Kd: less than 10 nM for the first, less than 10 nM for the second.

`COCCOc1ccc2c(Oc3cnc4nc(Nc5cc(C6CC6)nn(CCO)c5=O)n(C)c4c3Cl)cnn2c1` [Example I-153, 4-((7-chloro-6-((6-(2-methoxyethoxy)pyrazolo[1,5-a]pyridin-3-yl)oxy)-1-methyl-1H-imidazo[4,5-b]pyridin-2-yl)amino)-6-cyclopropyl-2-(2-hydroxyethyl)pyridazin-3(2H)-one] and `CC(=O)N1CC2(CC(n3nc(Nc4nc5ncc(Oc6cnn7ccncc67)c(Cl)c5n4C)cc3C(F)(F)F)C2)C1` [Example I-156, 1-(6-(3-((7-chloro-1-methyl-6-(pyrazolo[1,5-a]pyrazin-3-yloxy)-1H-imidazo[4,5-b]pyridin-2-yl)amino)-5-(trifluoromethyl)-1H-pyrazol-1-yl)-2-azaspiro[3.3]heptan-2-yl)ethan-1-one] cannot be ordered by Kd: less than 10 nM for the first, less than 10 nM for the second.

`Cn1c(Nc2cc(C(F)(F)F)cn(-c3cccnc3)c2=O)nc2ncc(Oc3cnn4ccccc34)c(C#N)c21` [Example I-157, 1-methyl-2-((2-oxo-5-(trifluoromethyl)-2H-[1,3′-bipyridin]-3-yl)amino)-6-(pyrazolo[1,5-a]pyridin-3-yloxy)-1H-imidazo[4,5-b]pyridine-7-carbonitrile] showed a Kd of less than 10 nM.

Source: patent publication US12043632B2, “6-heteroaryloxy benzimidazoles and azabenzimidazoles as JAK2 inhibitors” (Ajax Therapeutics, Inc., priority 2020, dated 2024)
